Data on 13 compounds can be found in patent US6051570A, “Benzimidazole derivatives as antiulcer agents, process for their preparation and pharmaceutical compositions containing them” (Dr. Reddy's Research Foundation, priority 1998, dated 2000).

Structures can show the parent of a compound that is named as a salt.

One assay deals with gastric acid secretion. As to the kind of experiment: Gastric acid antisecretory activity in pylorus ligated rat model (intraduodenal). The assay is classed as in vivo, Male wistar rats. As to conditions: for inhibition in vivo at 10 mg/kg: Rattus norvegicus; for inhibition in vivo at 10 mg/kg / ED50: intraduodenal, 2 h; for ED50: pylorus ligated rat, read-out: ED50 value (in vivo experiment, gastric acid secretion). As for the experimental part:
B) Gastric acid antisecretory activity The inhibitory effect on gastric acid secretion is determined in pylorus ligated rat model according to Shay et al. ([…]., Gruenstein, H. & Siplet, H. Gastroenterology 1945, 5:43). Male wistar rats weighing about 150-200 g fasted for 24 h with ad libitum are used. Under ether anaesthesia the laparotomy is performed and pylorus portion of the stomach is isolated and ligated with surgical suture. The test drug/vehicle is administered intraduodenally and the abdominal incision is closed using Michael clips. After 2 h, the animals were sacrificed with excess ether anaesthesia and stomach is removed. The gastric contents are collected and centrifuged at 10,000 rpm for 10 min. The volume of the gastric juice is measured and acid concentration is estimated by titrating an aliquot of the gastric juice against 0.004N NaOH using phenolphthalein as the indicator. Total acid output is expressed as milliequivalents/L/kg/h and volume of gastric juice as mL/kg/h. The ED50 value for the test compound is calculated according to graphical method. Omeprazole is used as a standard compound.

The target of the next assay is T1, H^+ /K^+ - ATPase (Oryctolagus cuniculus, UniProt P27112).
T1 construct: Rabbit gastric mucosa containing H^+ /K^+ - ATPase activity is isolated; from tissue; host or cells: rabbit gastric fundic mucosa, membrane fraction (sucrose-step ultracentrifugation pellet)
T1 sequence (P27112 2-1035 limits assumed): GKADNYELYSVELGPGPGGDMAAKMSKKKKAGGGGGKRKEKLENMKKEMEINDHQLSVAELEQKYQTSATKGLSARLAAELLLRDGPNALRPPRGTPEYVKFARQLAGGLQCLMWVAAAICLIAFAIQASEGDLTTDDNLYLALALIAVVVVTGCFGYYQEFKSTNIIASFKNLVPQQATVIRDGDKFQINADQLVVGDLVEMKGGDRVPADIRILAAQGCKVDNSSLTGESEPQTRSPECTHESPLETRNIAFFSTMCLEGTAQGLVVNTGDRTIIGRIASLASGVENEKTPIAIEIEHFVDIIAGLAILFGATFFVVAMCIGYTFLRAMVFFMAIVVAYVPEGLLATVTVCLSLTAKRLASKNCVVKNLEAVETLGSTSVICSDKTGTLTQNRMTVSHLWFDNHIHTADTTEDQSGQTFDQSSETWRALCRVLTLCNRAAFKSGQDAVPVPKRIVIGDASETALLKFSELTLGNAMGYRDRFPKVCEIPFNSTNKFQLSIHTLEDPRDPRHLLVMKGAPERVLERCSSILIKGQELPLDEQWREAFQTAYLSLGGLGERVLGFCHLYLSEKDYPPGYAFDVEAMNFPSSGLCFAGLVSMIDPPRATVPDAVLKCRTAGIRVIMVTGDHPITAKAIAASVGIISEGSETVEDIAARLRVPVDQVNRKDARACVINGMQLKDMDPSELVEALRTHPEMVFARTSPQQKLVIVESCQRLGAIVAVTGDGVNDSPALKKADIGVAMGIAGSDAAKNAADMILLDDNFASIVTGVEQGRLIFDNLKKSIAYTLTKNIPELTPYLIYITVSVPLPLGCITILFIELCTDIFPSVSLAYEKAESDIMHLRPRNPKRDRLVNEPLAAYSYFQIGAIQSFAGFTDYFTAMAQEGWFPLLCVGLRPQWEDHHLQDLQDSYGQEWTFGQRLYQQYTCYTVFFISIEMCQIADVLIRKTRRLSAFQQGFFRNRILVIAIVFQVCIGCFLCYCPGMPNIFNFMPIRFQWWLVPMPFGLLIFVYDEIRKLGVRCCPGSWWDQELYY
T1 sequence (P18597 whole entry partner): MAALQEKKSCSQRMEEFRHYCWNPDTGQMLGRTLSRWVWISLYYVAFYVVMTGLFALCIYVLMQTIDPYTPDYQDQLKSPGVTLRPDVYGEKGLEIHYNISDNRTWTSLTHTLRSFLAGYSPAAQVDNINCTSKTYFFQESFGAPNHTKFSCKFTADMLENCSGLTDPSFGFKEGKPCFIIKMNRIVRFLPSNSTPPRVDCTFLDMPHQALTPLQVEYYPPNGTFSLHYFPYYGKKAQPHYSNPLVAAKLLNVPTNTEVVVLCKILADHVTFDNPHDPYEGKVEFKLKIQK
As to the kind of experiment: H+/K+-ATPase inhibition (rabbit gastric mucosa enzyme, Pi liberated by ATP hydrolysis). The assay is classed as biochemical. As to conditions: pH 6.5, 37° C., 15 min. An excerpt: A) H^+ /K^+ - ATPase inhibition
The most efficient method for reducing acid-related gastrointestinal disorder is through the inhibition of proton pump on the gastric parietal cell. The proton pump (H^+ /K^+ ATPase) is a membrane bound enzyme that exchanges protons for K^+ ions across the apical surface. Associated with this is a K^+ /Cl^- cotransporter which recycles the K^+ together with the Cl^- across the apical surface where HCl is formed by the Cl^- ions together with the secreted H^+. This enzyme has an ATP hydrolyzing activity which requires intravesicular K^+.
Principle [formula] Pi liberated is estimated, the amount of Pi liberated is proportional to the enzyme activity.
(i) Preparation of H^+ /K^+ - ATPase […]
Assay is carried out according to the protocol described by Beil, R (Beil, R. Br. J. Pharmacol, 1984, 82:651). […] After incubation for 15 min. at 37° C., the reaction is stopped by adding equal volume of phosphate reagent and the Pi produced by the hydrolysis of ATP is determined by the method of Lin et al. (Lin T -I. & Morales, M. F. Anal. Biochem. 1977, 77:10). The H^+ /K^+ - ATPase activity is calculated by subtracting the basal activity (in absence of KCl) from the rate of hydrolysis of ATP in the presence of K^+. The percent inhibition were determined for the test compounds.

For orientation: inhibition in vivo means how much of the control response was suppressed. Higher therefore signals a strong effect. As a reminder, the % Inhibition is the change of the read-out against control, counted positive when it falls. Broadly, the ED50 is the midpoint of the dose-response relation. A word on the IC50: it is the concentration at which inhibition is half-maximal.

In the assay with gastric acid secretion, `Cc1c(N2CCCCC2)ccnc1C[S+]([O-])c1nc2cc(N3CCCCC3)c(F)cc2[nH]1` (stereo not shown) [Example 69] returned an inhibition in vivo at 10 mg/kg of 97%. In the assay on gastric acid secretion, `COc1ccnc(C[S+]([O-])c2nc3cc(N4CCOCC4)ccc3[nH]2)c1C` (stereo not shown) [Example 87, 2-[[(4-Methoxy-3-methyl)pyridin-2-yl]methylsulfinyl]-5-(morpholin-1-yl)-1H-benzimidazole] returned an inhibition in vivo at 10 mg/kg of 90%. On the same count and under the same terms, to `COc1ccnc(C[S+]([O-])c2nc3cc(N4CCCC4)c(F)cc3[nH]2)c1C` (stereo not shown) [Example 84, 2-[[(4-Methoxy-3-methyl)pyridin-2-yl]methylsulfinyl]-6-fluoro-5-(pyrrolidin-1-yl)-1H-benzimidazole] belongs 93%. On to `COc1ccnc(C[S+]([O-])c2nc3cc(N4CCCCCC4)c(F)cc3[nH]2)c1C` (stereo not shown) [Example 81, 2-[[(4-Methoxy-3-methyl)pyridin-2-yl]methylsulfinyl]-6-fluoro-5-(hexamethyleneimin-1-yl)-1H-benzimidazole, sodium salt], for which, in the assay on gastric acid secretion, the “% Inhibition at 10 mg/kg” value was found to be 100%. Turning to `COc1ccnc(C[S+]([O-])c2nc3cc(N4CCCCCC4)c(F)cc3[nH]2)c1C` (stereo not shown) [Example 80, 2-[[(4-Methoxy-3-methyl)pyridin-2-yl]methylsulfinyl]-6-fluoro-5-(hexamethyleneimin-1-yl)-1H-benzimidazole], the inhibition in vivo at 10 mg/kg in the assay on gastric acid secretion amounted to 100%. On the same count and under the same terms, with `COc1ccnc(C[S+]([O-])c2nc3cc(N4CCCCCC4)ccc3[nH]2)c1C` (stereo not shown) [Example 91, 2-[[-(4-Methoxy-3-methyl)pyridin-2-yl]methylsulfinyl]-5-(hexamethyleneimin-1-yl)-1H-benzimidazole] the figure was 97%. `COc1ccnc(C[S+]([O-])c2nc3cc(N4CCOCC4)c(F)cc3[nH]2)c1C` (stereo not shown) [Example 57, 2-[[(4-Methoxy-3-methyl)pyridin-2-yl]methylsulfinyl]-6-fluoro-5-(morpholin-1-yl)-1H-benzimidazole]: the ED50 in the assay with gastric acid secretion stood at 3 ± 0.2 mg/kg. Besides, the IC50 on H^+ /K^+ - ATPase is 2.6 µM. `COc1ccnc(C[S+]([O-])c2nc3cc(N4CCCCC4)c(F)cc3[nH]2)c1C` (stereo not shown) [Example 68, 2-[[(4-Methoxy-3-methyl)pyridin-2-yl]metlhylsulfinyl]-6-fluoro-5-(piperidin-1-yl)-1H-benzimidazole, sodium salt]: in the assay with gastric acid secretion, the “% Inhibition at 10 mg/kg” value is recorded as 100%.

Consider `COc1ccnc(C[S+]([O-])c2nc3cc(N4CCN(C(=O)OC(C)(C)C)CC4)ccc3[nH]2)c1C` (stereo not shown) [Example 90, 2-[[(4-Methoxy-3-methyl)pyridin-2-yl]methylsulfinyl]-5-(4-t-butyloxycarbonylpiperazin-1-yl)-1H-benzimidazole], for which 10 mg/kg produced 100% inhibition in vivo with gastric acid secretion. The same measure, in the same setting: to `COc1ccnc(C[S+]([O-])c2nc3cc(N4CCCCC4)c(F)cc3[nH]2)c1C` (stereo not shown) [Example 67, 2-[[(4-Methoxy-3-methyl)pyridin-2-yl]methylsulfinyl]-6-fluoro-5-(piperidin-1-yl)-1H-benzimidazole] belongs 100%. Same read-out and setting: to `COc1ccnc(C[S+]([O-])c2nc3cc(N4CCN(C(=O)OC(C)(C)C)CC4)c(F)cc3[nH]2)c1C` (stereo not shown) [Example 73, 2-[[(4-Methoxy-3methyl)pyridin-2-yl]methylsulfinyl]-6-fluoro-5-(4-t-butyloxycarbonylpiperazin-1-yl)-1H-benzimidazole] belongs 93%; to `Cc1c(N2CCOCC2)ccnc1C[S+]([O-])c1nc2cc(N3CCCCCC3)c(F)cc2[nH]1` (stereo not shown) [Example 82, 2-[[(4-(Morpholin-1-yl)-3-methyl)pyridin-2-yl]methylsulfinyl]-6-fluoro-5-(hexamethyleneimin-1-yl)-1H-benzimidazole], 100%. As to `COc1ccc2[nH]c([S+]([O-])Cc3ncc(C)c(OC)c3C)nc2c1` (stereo not shown) [Omeprazole, 2-[[(4-methoxy-3,5-dimethyl)pyridin-2-yl]methylsulfinyl]-5-methoxy-1H-benzimidazole, reference compound], in the assay with gastric acid secretion, testing at 10 mg/kg gave an inhibition in vivo of 75% and the ED50 amounted to 4.96 ± 0.5 mg/kg. For the same compound, the IC50 at H^+ /K^+ - ATPase was 4.35 ± 0.56 µM.
